Source: ChEMBL document CHEMBL2375333, “Triterpenes from the aerial parts of Cimicifuga yunnanensis and their antiproliferative effects on p53(N236S) mouse embryonic fibroblasts” (J Nat Prod, 2013)

Columns and labels:
[1] = system: MEF; experiment: Cytotoxicity against mouse wild type MEF cells after 48 hrs by MTT assay; assay type: cell-based
[2] = system: MEF; experiment: Cytotoxicity against mouse MEF cells harboring H-RasV12 and p53 N236S mutant after 48 hrs by MTT assay; assay type: functional, cell-based
[3] = system: MEF; experiment: Cytotoxicity against p53-/- mouse MEF cells harboring H-RasV12 after 48 hrs by MTT assay; assay type: functional, cell-based

C[C@@H]1C[C@]2(OC[C@](C)(O)[C@H]2O)O[C@H]2C[C@@]3(C)C4=C(C[C@@H](O)[C@]3(C)[C@@H]12)[C@@]1(C)CC[C@H](O)C(C)(C)[C@@H]1CC4
IC50 [1]: 14.5 µM
IC50 [2]: 5.5 µM

C[C@@H]1C[C@]2(OC[C@](C)(O)[C@H]2O)O[C@H]2C[C@@]3(C)C4=CC[C@H]5C(C)(C)[C@@H](O)CC[C@]5(C)C4=CC[C@]3(C)[C@@H]12
IC50 [1]: 6 µM
IC50 [2]: 8.6 µM

CC(=O)O[C@@H]1C[C@@]23C[C@@]24CC[C@H](O)C(C)(C)[C@@H]4CC[C@H]3[C@]2(C)C[C@@H]3OC(=O)C[C@@H](C)[C@@H]3[C@@]12C
IC50 [3]: 7.5 µM

C[C@@H]1C[C@H]2O[C@@]3(O[C@@H]2C(C)(C)O)[C@H]1[C@@]1(C)[C@H](O)C[C@@]24C[C@@]25CC[C@H](O)C(C)(C)[C@@H]5CC=C4[C@]1(C)[C@H]3O
IC50 [3]: 9.8 µM

C=C(C)[C@@H]1O[C@]23O[C@@H]1C[C@@H](C)[C@@H]2[C@@]1(C)CC[C@@]24C[C@@]25CC[C@H](O)C(C)(C)[C@@H]5CC[C@H]4[C@]1(C)[C@H]3O
IC50 [3]: 6.2 µM

C[C@@H]1C[C@H]2O[C@]3(O[C@@H]2C(C)(C)O)[C@H]1[C@@]1(C)CCC2=C(CC[C@H]4C(C)(C)[C@@H]5CC[C@@]4(C2)O5)[C@]1(C)[C@H]3O [ACERINOL]
IC50 [3]: 10.2 µM

C[C@@H]1C[C@@]2(O[C@H]3C[C@@]4(C)[C@@H]5CC[C@H]6C(C)(C)[C@@H](O)CC[C@@]67C[C@@]57C[C@@H](O)[C@]4(C)[C@@H]13)O[C@H](O)[C@]1(C)O[C@H]21 [ACTEOL]
IC50 [3]: 7.4 µM
